In PubChem BioAssay AID2060503 (Molecular Pharmacology Branch, DTP, NCI, 2025):

System: 817829-284-R-J1-PDC complex spheroids, viability
Assay: Anticancer human tumor 817829-284-R-J1-PDC patient-derived colon adenocarcinoma cell line growth inhibition [GQUAD]
Conditions: for IC50: curve of first compound; for viability, T/C: stronger effect = lower value
In short: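 Multi-cell-type spheroids of tumor cells with HUVEC and mesenchymal stem cells, treated with drug combinations. Concentrations descend in half-log steps from near clinical Cmax, or from 10 microM where Cmax is unknown; viability read-out.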

[1] = second compound 0.0316 µM, first compound 0.0316 µM
[2] = second compound 0.0316 µM, first compound 0.1 µM
[3] = second compound 0.0316 µM, first compound 0.316 µM
[4] = second compound 0.0316 µM, first compound 1 µM
[5] = second compound 0.0316 µM, first compound 3.16 µM
[6] = second compound 0.0316 µM, first compound 10 µM
[7] = second compound 0.1 µM, first compound 0.0316 µM
[8] = second compound 0.1 µM, first compound 0.1 µM
[9] = second compound 0.1 µM, first compound 0.316 µM
[10] = second compound 0.1 µM, first compound 1 µM
[11] = second compound 0.1 µM, first compound 3.16 µM
[12] = second compound 0.1 µM, first compound 10 µM
[13] = second compound 0.316 µM, first compound 0.0316 µM
[14] = second compound 0.316 µM, first compound 0.1 µM
[15] = second compound 0.316 µM, first compound 0.316 µM
[16] = second compound 0.316 µM, first compound 1 µM
[17] = second compound 0.316 µM, first compound 3.16 µM
[18] = second compound 0.316 µM, first compound 10 µM
[19] = second compound 1 µM, first compound 0.0316 µM
[20] = second compound 1 µM, first compound 0.1 µM
[21] = second compound 1 µM, first compound 0.316 µM
[22] = second compound 1 µM, first compound 1 µM
[23] = second compound 1 µM, first compound 3.16 µM
[24] = second compound 1 µM, first compound 10 µM
[25] = second compound 3.16 µM, first compound 0.0316 µM
[26] = second compound 3.16 µM, first compound 0.1 µM
[27] = second compound 3.16 µM, first compound 0.316 µM
[28] = second compound 3.16 µM, first compound 1 µM
[29] = second compound 3.16 µM, first compound 3.16 µM
[30] = second compound 3.16 µM, first compound 10 µM
[31] = second compound 10 µM, first compound 0.0316 µM
[32] = second compound 10 µM, first compound 0.1 µM
[33] = second compound 10 µM, first compound 0.316 µM
[34] = second compound 10 µM, first compound 1 µM
[35] = second compound 10 µM, first compound 3.16 µM
[36] = second compound 10 µM, first compound 10 µM
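Also: spheroids exposed to agents for 7 days before readout.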
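For viability, T/C in this document: percent viability relative to DMSO vehicle control taken as 100%.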

CC(C)n1c(=O)n(C)c2cnc3cc(F)c(-c4ccc(OCCCN5CCCCC5)nc4)cc3c21 + CN(C)c1ccc(Nc2c3ccc(NC(=O)CCN4CCCC4)cc3nc3cc(NC(=O)CCN4CCCC4)ccc23)cc1
IC50 (second compound 0.0316 µM): > 10000 nM
IC50 (second compound 0.1 µM): > 10000 nM
IC50 (second compound 0.316 µM): > 10000 nM
IC50 (second compound 1 µM): > 10000 nM
IC50 (second compound 3.16 µM): > 10000 nM
IC50 (second compound 10 µM): 414 nM
viability, T/C [1]: 92.8%
viability, T/C [2]: 104%
viability, T/C [3]: 108%
viability, T/C [4]: 107%
viability, T/C [5]: 105%
viability, T/C [6]: 116%
viability, T/C [7]: 101%
viability, T/C [8]: 107%
viability, T/C [9]: 94.3%
viability, T/C [10]: 101%
viability, T/C [11]: 105%
viability, T/C [12]: 108%
viability, T/C [13]: 96.8%
viability, T/C [14]: 98.3%
viability, T/C [15]: 96%
viability, T/C [16]: 102%
viability, T/C [17]: 104%
viability, T/C [18]: 110%
viability, T/C [19]: 94.1%
viability, T/C [20]: 109%
viability, T/C [21]: 97.6%
viability, T/C [22]: 96.2%
viability, T/C [23]: 91.1%
viability, T/C [24]: 94.6%
viability, T/C [25]: 90.8%
viability, T/C [26]: 105%
viability, T/C [27]: 89.4%
viability, T/C [28]: 70.8%
viability, T/C [29]: 61.1%
viability, T/C [30]: 54.5%
viability, T/C [31]: 72.7%
viability, T/C [32]: 61.9%
viability, T/C [33]: 51.7%
viability, T/C [34]: 46%
viability, T/C [35]: 21%
viability, T/C [36]: 13.2%

CC1COCCN1c1cc(C2(O)CC3CCC(C2)O3)c2cnn(-c3ccn[nH]3)c2n1 (centres undefined) + CN(C)c1ccc(Nc2c3ccc(NC(=O)CCN4CCCC4)cc3nc3cc(NC(=O)CCN4CCCC4)ccc23)cc1
IC50 (second compound 0.0316 µM): < 31.6 nM
IC50 (second compound 0.1 µM): < 31.6 nM
IC50 (second compound 0.316 µM): < 31.6 nM
IC50 (second compound 1 µM): < 31.6 nM
IC50 (second compound 3.16 µM): < 31.6 nM
IC50 (second compound 10 µM): < 31.6 nM
viability, T/C [1]: 30%
viability, T/C [2]: 13.9%
viability, T/C [3]: 8.88%
viability, T/C [4]: 7.25%
viability, T/C [5]: 6.14%
viability, T/C [6]: 5.19%
viability, T/C [7]: 31.5%
viability, T/C [8]: 15.1%
viability, T/C [9]: 8.31%
viability, T/C [10]: 6.53%
viability, T/C [11]: 6.56%
viability, T/C [12]: 4.3%
viability, T/C [13]: 29.9%
viability, T/C [14]: 14.4%
viability, T/C [15]: 10.4%
viability, T/C [16]: 7.63%
viability, T/C [17]: 5.34%
viability, T/C [18]: 4.95%
viability, T/C [19]: 29.1%
viability, T/C [20]: 16.7%
viability, T/C [21]: 9.05%
viability, T/C [22]: 6.94%
viability, T/C [23]: 7.14%
viability, T/C [24]: 4.24%
viability, T/C [25]: 28.9%
viability, T/C [26]: 13.8%
viability, T/C [27]: 9.17%
viability, T/C [28]: 7.04%
viability, T/C [29]: 7.35%
viability, T/C [30]: 4.31%
viability, T/C [31]: 20.2%
viability, T/C [32]: 13.6%
viability, T/C [33]: 7.79%
viability, T/C [34]: 6.03%
viability, T/C [35]: 5.19%
viability, T/C [36]: 3.21%
